Two molecules from patent publication US5100880A, “Novel betalactam elastase inhibitors containing phosphorous acid derivatives at the 4-position of the 2-azetidinone” (Merck & Co., Inc., priority 1991, dated 1992) can be followed below.

The assay deals with T1, human granulocyte elastase (Homo sapiens, UniProt P08246).
T1 construct: Crude extract of human polymorphonuclear leukocytes (PMN) containing elastase activity; endogenous in cells; host or cells: human polymorphonuclear leukocytes (PMN), crude extract
T1 sequence (P08246 30-247 limits assumed): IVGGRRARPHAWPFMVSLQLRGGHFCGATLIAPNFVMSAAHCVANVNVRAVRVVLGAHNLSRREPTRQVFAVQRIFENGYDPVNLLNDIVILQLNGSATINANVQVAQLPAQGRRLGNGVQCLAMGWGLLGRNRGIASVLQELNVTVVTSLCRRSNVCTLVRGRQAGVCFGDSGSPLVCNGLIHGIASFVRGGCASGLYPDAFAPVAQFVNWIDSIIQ
Description: Inhibition of human polymorphonuclear leukocyte elastase via hydrolysis of Boc-AAPAN or Boc-AAPVN. The class given is biochemical. As to conditions: crude extract of human PMN; 0.05M TES buffer pH 7.5; substrate 0.2 mM Boc-AAPAN or Boc-AAPVN; read-out: kobs /I, second order rate constant for inactivation of the enzyme. On the procedure: Enzyme Assays for the Inhibition of Human Polymorphonuclear Leukocyte Elastase Via Hydrolysis of N-t-Boc-alanyl-alanyl-prolylalanine-p-nitroanilide (Boc-AAPAN) or N-t-Boc-alanyl-prolylvaline-p-nitroanilide (Boc-AAPVN) Reagent
0.05M TES (N-tris[hydroxymethyl]methyl-2-amino-ethanesulfonic acid) Buffer, pH 7.5.
0.2 mM Boc-AAPAN or Boc-AAPVN.
To prepare substrate, the solid was first dissolved in 10.0 ml DMSO. Buffer at pH 7.5 was then added to a final volume of 100 ml.
Crude extract of human polymorphonuclear leukocytes (PMN) containing elastase activity.
Inhibitors (azetidinones) to be tested dissolved in DMSO just before use.
To 1.0 ml of 0.2 mM Boc-AAPAN in a cuvette, 0.01-0.1 ml of DMSO with or without inhibitor was added. After mixing, a measurement was taken at 410 mμ to detect any spontaneous hydrolysis due to presence of test compound. 0.05 Milliliters of PMN extract was then added and the ΔOD/min at 410 mμ was measured and recorded. Beckman model 35 spectrophotometer was used.
Results are also expressed as Ki, the micromolar concentration of the inhibitor (μM) giving 50% of the control enzyme activity; or as ^k obs/I which is the second order rate constant in per mole per second for inactivation of the enzyme.
The elastase activity in the crude PMN extract may vary from one preparation to another. […]

Structures are written as SMILES.

With `CCCC(NC(=O)N1C(=O)C(CC)(CC)C1Oc1ccc(CP(=O)(OCC)OCC)cc1)c1ccc(C)cc1` [Example 1, (4S)-3,3-Diethyl-1-[(R)-α-n-propyl(4-methyl)-benzylaminocarbonyl)]-4-[4-(diethoxyphosphinylmethyl)-phenoxy]-azetidin-2-one], the kinact/KI is 1.2e+06 M⁻¹ s⁻¹.

For the molecule `CCCC(NC(=O)N1C(=O)C(CC)(CC)C1Oc1ccc(CP(=O)(O)O)cc1)c1ccc(C)cc1` [Example 2, (4S)-3,3-Diethyl-1-[(R)-α-n-propyl-(4-methyl)-benzylaminocarbonyl)]-4-[4-(dihydroxyphosphinylmethyl)phenoxy]-azetidin-2-one], the kinact/KI turned out to be 220000 M⁻¹ s⁻¹.
